Source: PMC9848351, “Discovery of new pyridine-quinoline hybrids as competitive and non-competitive PIM-1 kinase inhibitors with apoptosis induction and caspase 3/7 activation capabilities” (Journal of Enzyme Inhibition and Medicinal Chemistry, 2023)

Key:
[1] = system: myeloid leukaemia cell line (NFS-60); experiment: MTT anticancer activity, NFS-60; format: cell-based; details: NFS-60, 72 h, MTT; mean ± SEM
Description: (§1) Anticancer effect of the above-mentioned compounds was evaluated using four human cancer cell lines. Colon cancer cells (Caco-2), myeloid leukaemia cell line (NFS-60), liver cancer cell line (HepG-2) and prostate cancer cell line (PC-3) using MTT method was used for assaying cell viability[26] (Supplementary Page S55).
(§2) All final compounds were evaluated against four human cancer cell lines namely; liver cancer (HepG2) (ATCC® HB-8065™), colon cancer (Caco-2) (ATCC® HTB-37™), leukaemia cancer (NFS-60) (ATCC® CRL-1838™), and prostate cancer (PC-3) (ATCC® CRL-1435™) using doxorubicin (Dox) as the reference drug being widely used in tumour management utilising microculture MTT assay, declared by Mosmann[26] (Table 1 in Supplementary Material, Figures 5–8). […]
(§3) MTT method was used for assaying cell viability 25. Twenty microliters of 5 mg/ml MTT (Sigma, USA) was added to each well and the plate was incubated at 37 °C for 3 h. Then MTT solution was removed, 100 µl DMSO was used and the absorbance of each well was measured with a microplate reader ( BMG LabTech, Germany) at 570 nm. The effective concentration (IC 50) and safe dose (EC100) values of the tested compounds that cause 50% and 100% cell viability were estimated by the Graphpad Instat software.
(§4) Determination of the anticancer activity
(§5) Anticancer effect of the above-mentioned compounds was evaluated using four human cancer cell lines. Colon cancer cells (Caco-2) were maintained in DMEM (Lonza, USA) containing 10% FBS while myeloid leukemia cell line (NFS-60), liver cancer cell line (HepG-2) and prostate cancer cell line (PC-3) were cultured in RPMI-1640 (Lonza, USA) supplemented with 10% FBS. All cancer cells (5x10^3 cells/well) were seeded in sterile 96-well plates. After 24h, serial concentrations of the tested compounds and Dox were incubated with four cancer cell lines for 72 h at 37 °C in 5% CO2 incubator. MTT method was done as described above. The Graphpad Instat software was used for calculating the half maximal inhibitory concentration (IC50) values. Furthermore, phase contrast inverted microscope with a digital camera (Olympus, Japan) was used for investigating […]
(§6) safest anticancer compounds. […]

[2] = system: Colon cancer cells (Caco-2); experiment: MTT anticancer activity, Caco-2; format: cell-based, human; details: for IC50: Caco-2, 72 h, MTT, mean ± SEM; for Caco-2 SI: selectivity index, Wi-38 versus Caco-2
Description: as §1
All final compounds were evaluated against four human cancer cell lines namely; liver cancer (HepG2) (ATCC® HB-8065™), colon cancer (Caco-2) (ATCC® HTB-37™), leukaemia cancer (NFS-60) (ATCC® CRL-1838™), and prostate cancer (PC-3) (ATCC® CRL-1435™) using doxorubicin (Dox) as the reference drug being widely used in tumour management utilising microculture MTT assay, declared by Mosmann[26] (Table 1 in Supplementary Material, Figures 5–8).
(§7) Cytotoxicity of the tested compounds was evaluated using normal human lung fibroblast Wi-38 cell line compared to currently used anticancer drug (doxorubicin).
as §3, with “Firstly, Wi-38 cell line was subcultured in DMEM medium-contained 10% fetal bovine serum (FBS), then, seeded as 5x10^3 cells per well in 96-well cell culture plate and incubated at 37 °C in 5% CO 2 incubator. Serial concentrations of these compounds and doxorubicin (Dox) were incubat ed with Wi-38 cells for 72 h after 24 h for cell attachment. MTT method” for “MTT method”
as §4, §5, §6

[3] = system: prostate cancer cell line (PC-3); experiment: MTT anticancer activity, PC-3; format: cell-based, human; details: PC-3, 72 h, mean ± SEM
Description: as §1, §2, §3, §4, §5, §6

[4] = system: liver cancer cell line (HepG-2); experiment: MTT anticancer activity, HepG-2; format: cell-based, human; details: Homo sapiens, HepG2; HepG-2, 72 h, MTT; mean ± SEM
Description: as §1, §2, §3, §4, §5, §6

[5] = system: normal human lung fibroblast Wi-38 cell line; experiment: MTT cytotoxicity on normal cells; format: cell-based; details: Wi-38, 72 h, MTT, mean ± SEM; for EC50: Homo sapiens, 50% cell viability; for Wi-38 EC100: safe dose, 100% cell viability
Description: Cytotoxicity of the tested compounds was evaluated using normal human lung fibroblast Wi-38 cell line compared to currently used anticancer drug (doxorubicin) using MTT method was used for assaying cell viability[26] (Supplementary Page S55).
Cytotoxicity test is one of the biological evaluations and screening tests that use human normal and cancer cells in-vitro to observe the effect of the studied compounds on their growth using MTT-based cytotoxicity. Microculture MTT method[26] was used to determine cytotoxic activity of the newly synthesised compounds against normal human lung fibroblast (Wi-38) using doxorubicin (Dox) as standard anticancer drug. The highest IC50 and EC100 values illustrate that the compounds were safe on the proliferation of normal human cells. […]. page 47:
as §7
as §3, with “Firstly, Wi-38 cell line was subcultured in DMEM medium-contained 10% fetal bovine serum (FBS), then, seeded as 5x10^3 cells per well in 96-well cell culture plate and incubated at 37 °C in 5% CO 2 incubator. Serial concentrations of these compounds and doxorubicin (Dox) were incubat ed with Wi-38 cells for 72 h after 24 h for cell attachment. MTT method” for “MTT method”, “Instat software. […]” for “Instat software.”

SMILES | IC50 [1] [nM] | IC50 ([2]; Homo sapiens) [nM] | IC50 ([3]; Homo sapiens, 72 h) [nM] | IC50 [4] [nM] | melting point [°C] | IC50 [2] [nM] | IC50 [3] [nM] | Caco-2 SI [2] | EC50 [5] [nM] | Wi-38 EC100 [5] [µM]
COc1ccc2nc(N3CCOCC3)c(-c3cc(-c4cccc(O)c4)nc(S)c3C#N)cc2c1 [6c, 6-(3-Hydroxyphenyl)-4-(6-methoxy-2-morpholin-4-yl-quinolin-3-yl)-2-mercaptopyridine-3-carbonitrile] | 145 ± 15 | 99.9 ± 3 | 100.8 ± 0.1 | 84.8 ± 2 | > 300 | – | – | 3.764 | 376 ± 1 | 0.177 ± 0.011
COc1ccc2nc(N3CCCCC3)c(-c3cc(-c4cccc(O)c4)[nH]c(=O)c3C#N)cc2c1 [5f, 6-(3-Hydroxyphenyl)-4-(6-methoxy-2-(piperidin-1-yl)quinolin-3-yl)-2-oxo-1,2-dihydropyridine-3-carbonitrile] | 42.83 ± 0.3 | 50.8 ± 4 | 45.1 ± 0.1 | 37.8 ± 10 | 265 to 267 | – | – | 0.587 | 29.8 ± 2 | 0.0258 ± 0.008
COc1ccc2nc(N3CCOCC3)c(-c3cc(-c4cccc(O)c4)nc(OCC(=O)O)c3C#N)cc2c1 [9c, 2-((3-Cyano-6-(3-hydroxyphenyl)-4-(6-methoxy-2-morpholin-4-yl-quinolin-3-yl)pyridin-2-yl)oxy)acetic acid] | 96.1 ± 2 | 52.6 ± 0.1 | 46.2 ± 2 | 86.7 ± 3 | 274 to 275 | – | – | 5.247 | 276 ± 2 | 0.0754 ± 0.003
N#Cc1c(-c2cc3ccccc3nc2N2CCOCC2)cc(-c2cccc(O)c2)nc1OCC(=O)Nc1ccccc1 [11a, 2-((3-Cyano-6-(3-hydroxyphenyl)-4-(2-morpholin-4-yl-quinolin-3-yl)pyridin-2-yl)oxy)-N-phenylacetamide] | 126 ± 6 | 158 ± 2 | 158 ± 26 | 336 ± 22 | 243 to 245 | – | – | 0.911 | 144 ± 1 | 0.0906 ± 0.012
N#Cc1c(-c2cc3cc(Cl)ccc3nc2N2CCOCC2)cc(-c2cccc(O)c2)nc1OCC(=O)Nc1ccc(Cl)cc1 [11e, 2-((4-(6-Chloro-2-morpholin-4-yl-quinolin-3-yl)-3-cyano-6-(3-hydroxyphenyl)pyridin-2-yl)oxy)-N-(4-chlorophenyl)acetamide] | – | – | – | 41.6 | > 300 | – | – | 2.733 | 85 ± 3 | 0.0178 ± 0.0001
COc1ccc(NC(=O)COc2nc(-c3cccc(O)c3)cc(-c3cc4cc(OC)ccc4nc3N3CCOCC3)c2C#N)cc1 [11i, 2-((3-Cyano-6-(3-hydroxyphenyl)-4-(6-methoxy-2-morpholin-4-yl-quinolin-3-yl)pyridin-2-yl)oxy)-N-(4-methoxyphenyl)acetamide] | 523 ± 40 | 34.7 ± 3 | 63.4 ± 2 | 48.6 | > 300 | – | – | 7.435 | 258 ± 31 | 0.148 ± 0.0001
N#Cc1c(-c2cc3ccccc3nc2N2CCOCC2)cc(-c2cccc(O)c2)[nH]c1=O [5a, 6-(3-Hydroxyphenyl)-4-(morpholin-4-yl-quinolin-3-yl)-2-oxo-1,2-dihydropyridine-3-carbonitrile] | 31.62 ± 0.1 | 38.8 ± 8 | – | 34.4 ± 6 | > 300 | – | – | 1.554 | 60.3 ± 40 | 0.0192 ± 0.003
N#Cc1c(-c2cc3cc(Cl)ccc3nc2N2CCOCC2)cc(-c2cccc(O)c2)nc1OCC(=O)Nc1ccccc1 [11d, 2-((4-(6-Chloro-2-morpholin-4-yl-quinolin-3-yl)-3-cyano-6-(3-hydroxyphenyl)pyridin-2-yl)oxy)-N-phenylacetamide] | – | < 100 | < 100 | 45.8 | 277 to 280 | 52.1 ± 2 | 59.4 ± 1 | 2.054 | 107 ± 1 | 0.0455 ± 0.002
COc1ccc(NC(=O)COc2nc(-c3cccc(O)c3)cc(-c3cc4cc(Cl)ccc4nc3N3CCOCC3)c2C#N)cc1 [11f, 2-((4-(6-Chloro-2-morpholin-4-yl-quinolin-3-yl)-3-cyano-6-(3-hydroxyphenyl)pyridin-2-yl)oxy)-N-(4-methoxyphenyl)acetamide] | – | – | – | 36.3 | 228 to 230 | – | – | 5.262 | 181 ± 13 | 0.0347 ± 0.003

The next lines start with results.

IC50 [1] [nM] | IC50 ([2]; Homo sapiens) [nM] | IC50 ([3]; Homo sapiens, 72 h) [nM] | IC50 [4] [nM] | melting point [°C] | IC50 [2] [nM] | IC50 [3] [nM] | SMILES | Caco-2 SI [2] | EC50 [5] [nM] | Wi-38 EC100 [5] [µM]
96.5 ± 4 | 84.2 ± 5 | 62.6 ± 0.1 | 55.7 | 278 to 280 | – | – | COc1ccc2[nH]c(=O)c(-c3cc(-c4cccc(O)c4)nc(S)c3C#N)cc2c1 [14c, 6-(3-Hydroxyphenyl)-2-mercapto-4-(6-methoxy-2-oxo-1,2-dihydroquinolin-3-yl)pyridine-3-carbonitrile] | 1.971 | 166 ± 9 | 0.0972 ± 0.005
247 ± 16 | 191 ± 19 | 242 ± 37 | 108 ± 7 | > 300 | – | – | N#Cc1c(-c2cc3ccccc3[nH]c2=O)cc(-c2cccc(O)c2)nc1N [15a, 2-Amino-6-(3-hydroxyphenyl)-4-(2-oxo-1,2-dihydroquinolin-3-yl)pyridine-3-carbonitrile] | 1.058 | 202 ± 3 | 0.0663 ± 0.003
135 ± 3 | 146 ± 19 | 140 ± 4 | 125 ± 2 | 227 to 230 | – | – | N#Cc1c(-c2cc3cc(Cl)ccc3[nH]c2=O)cc(-c2cccc(O)c2)nc1S [14b, 4-(6-Chloro-2-oxo-1,2-dihydroquinolin-3-yl)-6-(3-hydroxyphenyl)-2-mercaptopyridine-3-carbonitrile] | 1.342 | 196 ± 12 | 0.153 ± 0.005
